Legend:
[1] = biological target: cathepsin B (Capra hircus, UniProt A0A452G2V1); test: Inhibition of purified goat liver cathepsin B, BANA substrate, pH 6.0; assay type: biochemical
[2] = biological target: T1, cathepsin H (Capra hircus, UniProt A0A452G5L2); test: Inhibition of purified goat liver cathepsin H, Leu-βNA substrate, pH 7.0; assay type: biochemical
T1 sequence (A0A452G5L2 with tags, fused parts or gaps): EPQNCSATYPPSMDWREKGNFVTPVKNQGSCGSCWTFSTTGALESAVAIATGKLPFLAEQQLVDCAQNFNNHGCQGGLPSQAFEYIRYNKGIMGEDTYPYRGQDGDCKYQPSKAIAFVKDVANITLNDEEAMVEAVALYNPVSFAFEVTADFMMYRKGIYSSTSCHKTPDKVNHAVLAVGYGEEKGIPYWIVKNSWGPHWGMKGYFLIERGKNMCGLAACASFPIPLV

[3] = biological target: cathepsin L (Capra hircus, UniProt A0A452FFI6); test: Inhibition of purified goat liver cathepsin L, ZPheArg-4mβNA substrate, pH 6.0; assay type: biochemical
[4] = biological target: goat brain cathepsin B; conditions: read-out: Ki, goat brain cathepsin B; competitive; cited from earlier work
[5] = biological target: goat brain cathepsin L; conditions: read-out: Ki, goat brain cathepsin L; cited from earlier work

Structure (SMILES) | Ki [1] [µM] | Ki [2] [µM] | Ki [3] [nM] | inhibition at 1 µM ([1]; read-out: % inhibition of cathepsin B) [%] | inhibition at 10 µM ([2]; read-out: % inhibition of cathepsin H) [%] | inhibition at 0.001 µM ([3]; read-out: % inhibition of cathepsin L) [%] | Ki [4] [µM] | Ki [5] [µM]
NC(=O)N/N=C(\C=C\c1ccc(Cl)cc1)c1ccccc1 [2c′, (1E)-1-((E)-3-(4-chlorophenyl)-1-phenylallylidene)semicarbazide] | 36.4 ± 0.5 | 21 ± 0.2 | 0.93 ± 0.007 |  |  |  |  | 
CC(=O)N[C@@H](CC(C)C)C(=O)N[C@@H](CC(C)C)C(=O)N[C@H](C=O)CCCNC(=N)N [Leupeptin, reference compound] |  |  |  | ~98.8 | ~52 | 89.2 | 0.0125 | 0.00145
O=C(/C=C/c1cccc(Cl)c1)c1ccccc1 [Compound 1b, (E)-3-(3-chlorophenyl)-1-phenylprop-2-en-1-one] | 130 ± 2 | 312 ± 2 | 0.04 ± 0.0001 |  |  |  |  | 
O=C(/C=C/c1ccccc1Cl)c1ccccc1 [Compound 1a, (E)-3-(2-chlorophenyl)-1-phenylprop-2-en-1-one] | 19.5 ± 0.2 | 110 ± 1 | 6 ± 0.02 |  |  |  |  | 
COc1ccc(C2CC(c3ccccc3)=NN2C(N)=O)cc1 (centres unmarked) [Compound 3f] | 69.3 ± 0.07 | 48 ± 0.2 | 0.5 ± 0.002 |  |  |  |  | 
O=C(/C=C/c1cccc([N+](=O)[O-])c1)c1ccccc1 [Compound 1g, (E)-3-(3-nitrophenyl)-1-phenylprop-2-en-1-one] | 100 ± 1 | 60 ± 0.2 | 2.05 ± 0.03 |  |  |  |  | 
NC(=O)N1N=C(c2ccccc2)CC1c1ccc([N+](=O)[O-])cc1 (centres unmarked) [Compound 3h] | 39 ± 0.03 | 60 ± 0.3 | 16.9 ± 0.3 |  |  |  |  | 
NC(=O)N/N=C(/C=C/c1cccc([N+](=O)[O-])c1)c1ccccc1 [Compound 2g, (1Z)-1-((E)-3-(3-nitrophenyl)-1-phenylallylidene)semicarbazide] | 41.3 ± 0.5 | 23 ± 0.3 | 2.05 ± 0.02 |  |  |  |  | 
NC(=O)N/N=C(/C=C/c1ccccc1Cl)c1ccccc1 [Compound 2a, (1Z)-1-((E)-3-(2-chlorophenyl)-1-phenylallylidene)semicarbazide] | 0.207 ± 0.001 | 43 ± 0.2 | 1.78 ± 0.02 |  |  |  |  | 
NC(=O)N/N=C(/C=C/c1ccc(Cl)cc1)c1ccccc1 [Compound 2c, (1Z)-1-((E)-3-(4-chlorophenyl)-1-phenylallylidene)semicarbazide] | 27.3 ± 0.4 | 29 ± 0.5 | 1.17 ± 0.02 |  |  |  |  | 
NC(=O)N/N=C(\C=C\c1ccccc1Cl)c1ccccc1 [2a′, (1E)-1-((E)-3-(2-chlorophenyl)-1-phenylallylidene)semicarbazide] | 2.7 ± 0.04 | 33 ± 0.4 | 0.04 ± 0.0003 |  |  |  |  | 

Second part, led by results:

Ki [1] [µM] | Ki [2] [µM] | Ki [3] [nM] | inhibition at 1 µM ([1]; read-out: % inhibition of cathepsin B) [%] | inhibition at 10 µM ([2]; read-out: % inhibition of cathepsin H) [%] | inhibition at 0.001 µM ([3]; read-out: % inhibition of cathepsin L) [%] | Structure (SMILES) | Ki [4] [µM] | Ki [5] [µM]
52.4 ± 0.01 | 192 ± 0.4 | 86.2 ± 0.2 |  |  |  | NC(=O)N1N=C(c2ccccc2)CC1c1ccccc1 (centres unmarked) [Compound 3i] |  | 
14.8 ± 0.07 | 40 ± 0.1 | 217 ± 4 |  |  |  | COc1ccccc1C1CC(c2ccccc2)=NN1C(N)=O (centres unmarked) [Compound 3d] |  | 
34.9 ± 0.1 | 43 ± 0.1 | 8.2 ± 0.06 |  |  |  | COc1cccc(C2CC(c3ccccc3)=NN2C(N)=O)c1 (centres unmarked) [Compound 3e] |  | 
9.4 ± 0.03 | 60 ± 0.3 | 31.6 ± 0.4 |  |  |  | NC(=O)N1N=C(c2ccccc2)CC1c1ccccc1Cl (centres unmarked) [Compound 3a, 5-(2′-chlorophenyl)-3-phenyl-2-pyrazoline-1-carboxamide] |  | 
58.1 ± 0.05 | 38 ± 0.2 | 0.4 ± 0.005 |  |  |  | NC(=O)N1N=C(c2ccccc2)CC1c1cccc([N+](=O)[O-])c1 (centres unmarked) [Compound 3g, 5-(3′-nitrophenyl)-3-phenyl-2-pyrazoline-1-carboxamide] |  | 
82.7 ± 1 | 25 ± 0.5 | 50.5 ± 0.3 |  |  |  | NC(=O)N1N=C(c2ccccc2)CC1c1cccc(Cl)c1 (centres unmarked) [Compound 3b, 5-(3′-chlorophenyl)-3-phenyl-2-pyrazoline-1-carboxamide] |  | 
116 ± 2 | 48 ± 0.5 | 23.4 ± 0.2 |  |  |  | Cc1ccc(C2CC(c3ccccc3)=NN2C(N)=O)cc1 (centres unmarked) [Compound 3j] |  | 
39 ± 0.2 | 66 ± 0.4 | 33 ± 0.1 |  |  |  | NC(=O)N1N=C(c2ccccc2)CC1c1ccc(Cl)cc1 (centres unmarked) [Compound 3c] |  | 

Source: article PMC7124378 (International Journal of Biological Macromolecules, 2015)
